# In US20090131356A1, “miR-15, miR-26, miR-31, miR-145, miR-147, miR-188, miR-215, miR-216, miR-331, mmu-miR-292-3P REGULATED GENES AND PATHWAYS AS TARGETS FOR THERAPEUTIC INTERVENTION” (ASURAGEN, INC., priority 2006, published 2009):
# Test system: Du145 human prostate cancer cells
# Experiment: Long-term growth curve with repeated electroporation, Du145
# Format: cell-based
# Conditions: 1.6 μM miRNA electroporated, repeated on days 7 and 14, day 20
# Method: The inventors assessed the therapeutic effect of hsa-miR-15a for prostate cancer by using the Du145 human prostate cancer cell line, derived from a brain metastasis (Stone et al., 1978). The inventors conducted growth curve experiments in the presence of miRNA for up to 20 days. Since in vitro transfections of naked interfering RNAs, such as synthetic miRNA, are transient by nature and compromised by the dilution of the miRNA during ongoing cell divisions, miRNA was administered at multiple time points (Bartlett et al., 2006; Bartlett et al., 2007). To accommodate miRNA delivery into a large quantity of cells, the inventors employed the electroporation method for delivery of hsa-miR-15a or negative control miRNA into Du145 human prostate cancer cells. Briefly, 0.5×10^6 Du145 cells were electroporated with 1.6 μM hsa-miR-15a or negative control using the BioRad Gene Pulser Xcell™ instrument (BioRad Laboratories Inc., Hercules, Calif., USA), seeded and propagated in regular growth medium. Experiments were carried out in triplicates. When the control cells reached confluence (days 7 and 14), cells were harvested, counted and electroporated again with the respective miRNAs. To ensure similar treatment of both conditions as well as to accommodate exponential growth, the cell numbers used for the second and third electroporation were titrated down to the lowest count. The population doubling was calculated from these electroporation events using the formula PD=ln(Nf/N0)/ln2 and adjusting for the fact that approximately 72% of newly seeded cells adhere to the plate. Cell counts were extrapolated and plotted on a linear scale (FIG. 10). Arrows represent electroporation days. Standard deviations are included in the graphs.
# To evaluate the therapeutic activity of hsa-miR-147 over an extended period of time, the inventors conducted growth curve experiments in the presence of miRNA for up to 21 days. Since in vitro transfections of naked interfering RNAs, such as synthetic miRNA, are transient by nature and compromised by the dilution of the oligo during ongoing cell divisions, miRNA was administered at multiple time points (Bartlett et al., 2006; Bartlett et al., 2007). To accommodate miRNA delivery into a large quantity of cells, the inventors employed the electroporation method to delivery hsa-miR-147 or negative control miRNA into PC3 and Du145 human prostate cancer cells. […] When the control cells reached confluence (days 7 and 14), cells were harvested, counted and electroporated again with the respective miRNAs. […] The population doubling was calculated from these electroporation events using the formula PD=ln(Nf/N0)/ln2 and adjusting for the fact that approximately 72% of newly seeded cells adhere to the plate. […]
substance,measurement,setting,value
"hsa-miR-15a: Synthetic pre-miR-15a (Ambion); mature sequence UAGCAGCACAUAAUGGUUUGUG, MIMAT0000068, SEQ ID NO:1 (synthetic pre-miR (Ambion), chemistry not given here; listed as Homo sapiens)",cells relative to cells electroporated with negative control miRNA,,11.8%
same,inhibition of Du145 cell growth,relative to proliferation of control cells (100%),88.2%
